Non-standard residues stand in square brackets, D forms with d. No end group written: not given here. 2Nal = N[C@@H](Cc1ccc2ccccc2c1)C(=O)O; Aib = CC(C)(N)C(=O)O

The record followed here is patent publication US5688760A, “Polypeptides having bone resorption inhibitory activity comprising PTHrP-derived sequences” (Genentech, Inc., priority 1990, dated 1997).

Experiment [1] can be described thus: In vivo serum calcium levels after intravenous injection in rats. Particulars: 100 nanograms 100 grams body weight, saline control about 2.58. The procedure: Mammalian serum calcium levels are tightly controlled by homeostatic mechanisms and show little variation. A model peptide, PTHrP 107-139 was injected intraveneously into rats (n=10) in an amount of 100 nanograms 100 grams body weight whereafter serum calcium levels were measured at 30 and 60 minutes by atomic absorption spectrascopy according to standard methods. Control groups of animals were injected with a positive control, calcitonin, which causes a decrease in serum calcium levels, as well as a negative control in the form of saline. Two groups of 10 rats ware used in these controls.

The test system of a further experiment is isolated osteoclasts. Briefly: Osteoclast isolation and assay of bone resorption (resorption pits per osteoclast on bovine cortical bone slices). In kind it is cell-based, neonatal female Wistar rats. Further details: key to Activity (bone resorption inhibitory activity), Table 3 Effect of Amino Acid Substitutions: bone resorption inhibitory activity is designated by a "+"; inactivity by "-". The conditions noted are these: for Activity (bone resorption inhibitory activity), Table 3 Effect of Amino Acid Substitutions: amino acid derivatives of PTHrP (107-111). The procedure: For example, osteoclasts may be settled on sections of bone and incubated in the presence of, and in the absence of test compounds. Osteoclasts can be determined histochemically and can then be removed following incubation with bone sections by, for example, ultrasonification and the bone surface examined by microscopy to measure resorption pits produced per isolated osteoclasts. The number of resorption pits may be counted and their areas quantitated, for example by digitized morphometry. The variants or derivatives with inhibitory activity on bone resorption will, of course, inhibit the activity of osteoclasts in resorption of bone, which can be readily ascertained by analysis of bone sections. Likewise, variants or derivatives which have no effect in inhibiting bone resorption or which stimulate bone resorption will be evidenced by the formation of resorption pits on bone-sections.
Osteoclasts were isolated from neonatal female Wistar rats by curetting the long bones into culture medium (HEPES-buffered Medium 199 [Trademark Flow Laboratories]). The resulting cell suspension was allowed to settle onto 100 μm thick slices of devitalized bovine cortical bone for 20 minutes before rinsing. After this brief settling period, the majority of contaminating cells are removed in the rinsing step, resulting in a functionally pure population of osteoclasts. The bone slices were then incubated in tissue culture medium (Eagle's Minimum Essential Medium [Flow Laboratories] supplemented, with 100 iU/ml benzylpenicillin 100 μg/ml streptomycin and 10% heat-inactivated fetal bovine serum) at 37° C. in 95% air, 5% CO2, pH 7.3 in the presence or absence of test agents. After 24 hours, the cells were fixed, reacted cytochemically for tartrate-resistant acid phosphatase (TRACP) and the number of multinucleated cells with strong reactions for TRACP (i.e. osteoclasts) counted. The cells were then stripped by ultrasonication in 0.25M NH4 OH prior to processing for scanning electronic microscopy. The entire surface of each bone slice was scanned and the number of resorption pits counted. In selected experiments the depth of the pits are assessed. There was a minimum of 6 replicates for each concentration point for each peptide. Each experiment was repeated at least 3 times. Statistical significance was determined by using Student's t test to compare each treatment with control. Bone resorption can be expressed as pit No./OC/bone slice, total excavated plan area/OC/bone slice, or total excavated volume of bone/OC/bone slice. Such assays are routine and readily amenable to the screening of large numbers of compounds for bone resorption inhibitory activity.

In experiment [2] the test system is Cyclic AMP in osteoclasts. The experiment is described as follows: Cyclic AMP assay in isolated osteoclasts. The class given is cell-based, rat. The conditions noted are these: osteoclasts pretreated with isobutylmethylxanthine 1 mM, peptide for 10 minutes. The procedure: Recombinant hPTHrP(1-141) and recombinant hPTHrP(1-108) were prepared and purified as previously described (Suva et al., Supra, incorporated herein by reference). hPTHrP(107-139), […]COOH (SEQ ID NO:2), and other peptides were synthesized as carboxy-terminal amides, using an Applied Biosystems Peptide Synthesizer Model 430. Following HF cleavage, peptides were extracted from the resin with 60% (v/v) acetonitrile and 0.1% (v/v) trifluoroacetic acid and lyophilized. The crude peptides were purified by […] (2.5×90 cm column, C18, 20-30 μm. 300 Å resin, Vydac, California) with an acetonitrile gradient in the presence of 0.1% trifluoroacetic acid. The composition of the synthetic peptides was verified by quantitative amino acid analysis using a Beckman 6300 amino acid analyser. Cyclic AMP Assay: Osteoclasts were isolated as described above into 12-well tissue culture plates (Linbro). The cultures were pretreated with isobutylmethylxanthine (1 mM) for 20 minutes prior to administration of test peptides for 10 minutes. Cyclic AMP was extracted with 95% (v/v) ethanol/1 mM HCl and measured by radioimmunoassay. Four to six replicate wells were used in each treatment group.

With calcitonin [reference compound], the “serum calcium level at 30 minutes after injection” value in experiment [1] is “about 2.35 millimolar”.
Regarding “T R S npA (TRS[2Nal]; not fully specified (C-terminus); printed as T R S npA) [npA is 3(2-napthyl)alanine]”, the “Activity (bone resorption inhibitory activity), Table 3 Effect of Amino Acid Substitutions” value in the experiment on isolated osteoclasts is reported as “+”.
For the compound `CC1CNCCN1S(=O)(=O)c1cccc2cnccc12` (stereo not shown) [H7, 1-(5-isoquinolinesulfonyl)-2 methyl piperazine, reference compound], the “effect of PTHrP(107-139) on osteoclasts in the presence of protein kinase C inhibitor” value in the experiment on isolated osteoclasts is given as “blocked”.
As for calmon calcitonin [reference compound], in experiment [2], the “cyclic AMP response” value came out at 2.5 fold.
On to “Thr Arg Ser Ala Trp Leu Asp Ser Gly Val Thr Gly Ser Gly Leu Glu Gly Asp His Leu Ser Asp Thr Ser Thr Thr Ser Leu Glu Leu Asp Ser Arg-COOH (TRSAWLDSGVTGSGLEGDHLSDTSTTSLELDSR-OH) [PTHrP(107-139)]”, for which the “inhibition of resorption (pit number/osteoclast number), FIG. 2” value in the experiment with isolated osteoclasts (peptides at 1 nM) is given as “substantial inhibition”. Moreover, in experiment [2], the “cyclic AMP response” value was “no elevation”. Further, in experiment [1], the “serum calcium level at 30 minutes after injection” value was found to be 2.35 millimolar and the “serum calcium level at 60 minutes after injection” value was “about 2.55 millimolar”.
With T R C A W P G T C (TRCAWPGTC), the “Activity (bone resorption inhibitory activity), Table 3 Effect of Amino Acid Substitutions” value in the experiment with isolated osteoclasts is recorded as “+”.
Take “T R SmeA W (TRS[Aib]W; not fully specified (C-terminus); printed as T R SmeA W) [me is α-methyl]”: in the experiment on isolated osteoclasts, the “Activity (bone resorption inhibitory activity), Table 3 Effect of Amino Acid Substitutions” value is on record as “+”.
